Read-outs that look alike come from different tables or passages of the source.
What was measured:
[1] = test system: normal human primary dermal fibroblasts; parameters: method as in PMID 29688241; conditions: 48 h; previously obtained; cited from earlier work
[2] = test system: HCT116DoxR (Dox-resistant colorectal carcinoma cell line); assay: MTS cell viability assay, 2D culture, HCT116DoxR; conditions: read-out: IC50 (μM) HCT116DoxR, 48 h of exposure
Procedure: (§1) The in vitro cytotoxic potential of Cu(II) complexes in tumor and healthy cells was assessed using the MTS assay, a colorimetric method that allows the quantification of viable cells in culture.[46]
In this regard, cell viability was performed for each of the ligands on HCT116DoxR and fibroblasts.
Cell culture and maintenance
(§2) The cancer cell lines HCT116 (colorectal carcinoma) and A2780 (ovarian carcinoma) were obtained
(§3) from the American Type Culture Collection (ATCC®, Manassas, VA, USA), as well as the normal
human primary dermal fibroblasts.
(§4) Apart from the A2780 cell line, which was cultured in Roswell Park Memorial Institute (RPMI)
(§5) medium, all cells were cultured in Dulbecco’s modified Eagle medium (DMEM). Both media were
(§6) supplemented with 10% (v/v) fetal bovine serum (FBS) and 1% (v/v) of a Pen/Strep
(§7) (Penicillin/Streptomycin) solution. To maintain the resistant phenotype of the HCT116DoxR cell line,
(§8) the medium was additionally supplemented with 3.6 μM Dox4. All media and supplements were
(§9) purchased from Thermo Fischer Scientific (Waltham, MA, USA).
(§10) Cells were maintained in 25 cm2 T-flasks (T25) in a humidified atmosphere at 37 °C and 5% (v/v) CO
(§11) (SANYO CO2 Incubator, Electric Biomedical Co., Osaka, Japan).
(§12) The effect of Cu(II) complexes on cell viability was studied in HCT116, HCT116DoxR, and A2780
(§13) cancer cell lines and in normal human primary fibroblasts. Cells were seeded in a density of 0.75×105
(§14) cells/mL into 96-well plates and incubated in a humidified atmosphere at 37 °C and 5% (v/v) CO2 for
(§15) 24 h. After incubation, complexes were weighed, immediately solubilized in 100% (v/v) DMSO and
(§16) diluted for the final concentration with cell culture medium. The medium in each well was replaced by
(§17) a solution of fresh medium containing each Cu(II) complex (concentrations ranging from 0.01 μM to
(§18) as negative and positive controls, respectively.
(§19) Following a second incubation period of 48 h in the same conditions, the supernatant of each well was
(§20) replaced by a solution containing MTS reagent (3-(4,5-dimethylthiazol-2-yl)-5-(3-
(§21) carboxymethoxyphenyl)-2-(4-sulfophenyl)-2H-tetrazolium) provided by the CellTiter 96® AQueous
(§22) Non-Radioactive Cell Proliferation Assay Kit (Promega, Madison, WI, EUA) for a 30 minutes
(§23) incubation. The percentage of viable cells was indirectly determined by the spectrophotometric
(§24) quantification at 490 nm in a microplate reader, Tecan Infinite M200 (Tecan, Männedorf, Switzerland)
(§25) of formazan production, resultant from the reduction of the MTS reagent by mitochondrial
(§26) dehydrogenases. Since these enzymes are only active in viable cells, the absorbance value measured is
(§27) directly proportional to the percentage of viable cells in culture5.

[3] = test system: A2780 (ovarian carcinoma cell line); assay: MTS cell viability assay, 2D culture, A2780; format: cell-based, human
Procedure: as §1
Cell culture and maintenance
as §2, §3
human primary dermal fibroblasts.
as §4, §5, §6, §7, §8, §9, §10, §11, §12, §13, §14, §15, §16, §17, §18, §19, §20, §21, §22, §23, §24, §25, §26, §27
(§28) By analysing the cell viability as a function of log10(concentration) using Prism 8 (GraphPad
(§29) in cell viability) of each complex in the respective cell line at 48 h. The selective index (SI) for each
(§30) complex was also determined by dividing the IC50 of human fibroblasts by the respective IC50 in each
(§31) cancer cell line (allowing us to understand how much active a complex is in tumor versus normal cell).

HCT116DoxR cells [4] = assay: Cellular senescence (β-galactosidase, flow cytometry); conditions: 48 h; complexes at IC50, cisplatin 5 μM, Dox 6 μM
Procedure: Given the ability of the Cu(II) complexes to interfere with the progression of the cell cycle, the senescence of HCT116DoxR cells was analyzed after 48 h of exposure to their IC50 concentrations. […] To study the senescence-inducing capacity of the complexes, the activity of β-galactosidase, whose increased expression is associated with senescence, was quantified by flow cytometry (Figure 16).[73]
(§32) HCT116DoxR cell line was seeded in 6-well plates in a density of 1×10^5 cells/mL and incubated for
(§33) 24 h. Afterwards, the culture medium was replaced by medium with IC50 concentrations of different
(TBHP) were used as controls. After an incubation period of 48 h, cells were washed with PBS 1x, detached with TrypLETM Express and washed again with PBS 1x.

HCT116DoxR cells [5] = assay: Annexin V-FITC/PI apoptosis assay by flow cytometry; conditions: 48 h, complexes at IC50, Dox 6 μM, cisplatin 5 μM
Procedure: To evaluate the cell death mechanism involved in the cytotoxic effect of the selected complexes, a double-staining with Annexin V-FITC and PI was performed. […] The use of Annexin V conjugated with the fluorophore FITC allows the quantification of this interaction and subsequent identification of cells in apoptosis by flow cytometry. Furthermore, PI is a fluorophore that can intercalate with DNA and that can only enter the cell when the membrane is either compromised or ruptured, making it possible to identify cells undergoing late apoptosis and necrosis. Therefore, the double staining makes it possible to distinguish between viable cells (FITC^–; IP^–), those undergoing initial apoptosis (FITC^+; IP^–), those undergoing late apoptosis (FITC^+; IP^+), and those undergoing necrosis (FITC^–; IP^+).[55],[58]
Evaluation of apoptosis induction in HCT116DoxR cell line by flow cytometry The induction of apoptosis in HCT116DoxR cell line was evaluated by flow cytometry, using the
Annexin V-FITC Apoptosis Detection Kit (Thermo Fisher Scientific, Waltham, MA, USA). Cells
were seeded in 6-well plates at a cell density of 1×10^5 cells/mL and incubated for 24 h. Afterwards,
culture medium was replaced by medium with different Cu(II) complexes at their IC50 concentrations.
After 48 h of incubation, cells were washed with PBS 1x, detached from each well with TrypLETM
Express and washed again with PBS 1x. Cells were then resuspended in 1x annexin-binding buffer and
incubated at rt for 15 min with Annexin V-FITC and 100 μg/mL PI.
All samples were analysed by an Attune® Acoustic Focusing Flow Cytometer (Thermo Fischer
Scientific, Waltham, MA, USA) and the results were processed with Attune® Cytometric software

HCT116DoxR cells [6] = assay: Cell cycle progression (PI, flow cytometry)
Text: Therefore, we have assessed the cytostatic potential of complexes 2, 3, 5, and 7, and their ability to interfere with the progression of the cell cycle using the fluorescent marker PI. Since this marker can intercalate with DNA, the measurement of the fluorescence emitted by flow cytometry makes it possible to assess the DNA content at each stage of the cell cycle (G0/G1, S, and G2/M).[67] To ensure that all the cells were in the same phase before their exposure to the complexes, a double block was carried out with thymidine, a DNA synthesis inhibitor.[67]
as §32, §33
HCT116DoxR cell line was seeded in 6-well plates in a density of 1×10^5 cells/mL, incubated for 8 h in
a humidified atmosphere at 37 °C and 5% (v/v) CO2, and later synchronized in early S-phase with a 2
mM thymidine solution (Merck, Germany) for a 16 h period. Later, medium with thymidine was
replaced by fresh media and, after 8 h a second block with thymidine was performed in the same
concentrations of Cu(II) complexes. 0.1% (v/v) DMSO was used as the vehicle control while 5 μM
After treatment, cells were incubated for 9, 12,

[7] = test system: HCT116DoxR (Dox-resistant colorectal carcinoma cell line); conditions: cited from earlier work
[8] = test system: HCT116 (colorectal carcinoma cell line); assay: MTS cell viability assay, 2D culture, HCT116; format: cell-based, human
Procedure: as §1
Cell culture and maintenance
as §2, §3
human primary dermal fibroblasts.
as §4, §5, §6, §7, §8, §9, §10, §11, §12, §13, §14, §15, §16, §17, §18, §19, §20, §21, §22, §23, §24, §25, §26, §27, §28, §29, §30, §31

caspase-8 = assay: Caspase-8 activity (IETD-pNA cleavage); format: cell-based, human; conditions: HCT116DoxR, 48 h; complexes at IC50, cisplatin 5 μM
Procedure: In this assay, the chromogenic substrate IETD-pNA, resulting from the conjugation between the peptide IETD (Ile-Glu-Thr-Asp) and the chromophore pNA (p-nitroanilide), is cleaved by caspase-8, releasing the chromophore, which is detected by measuring absorbance at 400 nm.[48] […]
treated with ECLTM Prime Western Blotting Detection Reagents (Cytiva, United Kingdom) for 5 min and exposed to a film in a dark room. Membranes were later incubated (with agitation) twice with Stripping buffer (0.1M glycine, 20 mM magnesium acetate, 50 mM KCl, pH 2.0) during 10 and 20 min, respectively, and subsequently incubated with anti-β-actin (1:5000; Sigma, St. Louis, USA) as a control to normalize the results. Proteins were quantified by densitometry using Image J software.
The Caspase-8 activity in HCT116DoxR cells exposed to Cu(II) complexes was evaluated using the Caspase-8 Assay kit (ab39700) (Abcam, Cambridge, United Kingdom). […]
The plate was then incubated for 2 h at 37°C, after which, absorbance was read at 400 nm on a Tecan Infinite M200 microplate reader (Männedorf, Switzerland).
ΔΨm was evaluated in HCT116DoxR cell line by using the JC-1 Mitochondrial Membrane Potential Assay Kit (Abnova Corporation, Walnut, CA, USA). […]
Autophagy induction in HCT116DoxR cell line was evaluated using the Autophagy Assay Kit (ab139484) (Abcam, Cambridge, United Kingdom) according to the manufacturers’ instructions. […]

Row | Structure (SMILES) | IC50 [1] [µM] | IC50 [2] [µM] | IC50 ([3]; Homo sapiens, A2780, 48 h of exposure) [µM] | induction of cellular senescence compared to DMSO control (HCT116DoxR cells [4]) | cells (%) early apoptosis (HCT116DoxR cells [5]) [%] | cells (%) late apoptosis (HCT116DoxR cells [5]) [%] | cells (%) necrosis (HCT116DoxR cells [5]) [%] | cells (%) viable (HCT116DoxR cells [5]) [%] | percentage of apoptosis (early + late) (HCT116DoxR cells [5]) [%] | viability at 6 µM (HCT116DoxR cells [5]; Homo sapiens, read-out: cells (%) viable, 48 h) [%] | cell cycle arrest in the G2/M phase (HCT116DoxR cells [6]; Dox 6 μM, 9–24 h) | IC50 [7] [µM] | IC50 ([8]; Homo sapiens, HCT-116, 48 h of exposure) [µM] | IC50 ([3]; 48 h of exposure) [µM] | increase in caspase-8 activity compared to vehicle control (DMSO) (caspase-8) | cell cycle progression after 24 h (HCT116DoxR cells [6]; 24 h, complexes at IC50, cisplatin 5 μM) | IC50 ([8]; 48 h of exposure) [µM]
1 | COc1ccc(-c2cc(-c3ccccn3)nc(-c3ccccn3)c2)c2ccccc12 [L3] | 0.95 ± 0.08 | 0.2 ± 0.02 | – | – | – | – | – | – | – | – | – | – | – | – | – | – | –
2 | COc1cccc2c1C(=O)c1c(O)c3c(c(O)c1C2=O)C[C@@](O)(C(=O)CO)C[C@@H]3O[C@H]1C[C@H](N)[C@H](O)[C@H](C)O1 [Dox, doxorubicin, reference compound] | – | – | 0.1 ± 0.04 | did not induce an increase in cellular senescence | 16.6 ± 5.5 | 13.9 ± 1.9 | 9.8 ± 4.0 | 59.8 ± 3.8 | ~31 | ~60 | not verified | > 6 | 0.5 ± 0.1 | – | – | – | –
3 | N.N.[Cl][Pt][Cl] [cisplatin, reference compound] | – | – | – | induce cellular senescence | 47.5 ± 7.2 | 19.8 ± 5.9 | 0.1 ± 0.1 | – | 65 to 70 | – | – | – | – | 1.9 ± 0.2 | 2- to 3 fold | delay the cycle in the G2/M phase | 15.6 ± 5.3

Source: publication PMC11017252, “Copper(II) Complexes with 2,2′:6′,2″-Terpyridine Derivatives Displaying Dimeric Dichloro−μ–Bridged Crystal Structure: Biological Activities from 2D and 3D Tumor Spheroids to In Vivo Models” (Journal of Medicinal Chemistry, 2024)
